Source: paper PMC4403932 (Journal of Medicinal Chemistry, 2015)
Values joined by “and” are separate entries in the source; they are usually repeats but may differ in a detail not shown here. Equal entries are not always repeated. “Also recorded” adds a separate entry of the source. Where two headings read alike, the source gives them in different places.

Legend:
BRD4(1) = molecular target: T1, BRD4(1) (Homo sapiens, UniProt O60885); experiment: Isothermal titration calorimetry, BRD4(1); format: binding; conditions: for Kd / TΔS / ΔG / N (stoichiometry) / ΔHobs: ITC; for LE (ligand efficiency): LE = ΔG/N, N number of non-hydrogen atoms
T1 construct: made in house
Procedure: Experiments were carried out on an ITC200 titration microcalorimeter from MicroCal, LLC (GE Healthcare) equipped with a Washing module, with a cell volume of 0.2003 mL, and a 40 μL microsyringe. Experiments were carried out at 15 °C while stirring at 1000 rpm, in ITC buffer (50 mM HEPES, pH 7.5 (at 25 °C), 150 mM NaCl). The microsyringe was loaded with a solution of the protein sample (300−740 μM protein for BRD9 and BRD4(1), respectively, in ITC buffer) and was carefully inserted into the calorimetric cell which was filled with an amount of the ligand (0.2 mL, 20–25 μM in ITC buffer). The system was first allowed to equilibrate until the cell temperature reached 15 °C, and an additional delay of 60 s was applied. All titrations were conducted using an initial control injection of 0.3 μL followed by 38 identical injections of 1 μL with a duration of 2 s (per injection) and a spacing of 120 s between injections. The titration experiments were designed in such a fashion as to ensure complete saturation of the proteins before the final injection. The heat of dilution for the proteins was independent of their concentration and corresponded to the heat observed from the last injection, following saturation of ligand binding, thus facilitating the estimation of the baseline of each titration from the last injection. The collected data were corrected for protein heats of dilution (measured on separate experiments by titrating the proteins into ITC buffer) and deconvoluted using the MicroCal Origin software supplied with the instrument to yield enthalpies of binding (ΔH) and binding constants (KB) in the same fashion as that previously described in detail by Wiseman and co-workers.[66] Thermodynamic parameters were calculated using the basic equation of thermodynamics (ΔG = ΔH – TΔS = −RT ln KB, where ΔG, ΔH, and ΔS are the changes in free energy, enthalpy, and entropy of binding, respectively). In all cases a single binding site model was employed, supplied with the MicroCal Origin software package.

BRD3(1) = molecular target: T2, BRD3(1) (Homo sapiens, UniProt Q15059); experiment: Protein stability (thermal) shift assay, BRD3(1); format: binding; conditions: compound 10 μM, protein 2 μM; average of triplicate
T2 construct: Fragments were tested in a thermal shift assay against bromodomains of the BET subfamily; made in house

full length BRD4 = molecular target: T3, full length BRD4 (Homo sapiens, UniProt O60885); experiment: NanoBRET assay, NanoLuc-BRD4 full-length / histone H3.3-HaloTag in HEK293 cells; format: cell-based; conditions: up to 33 μM, 18 h
T3 construct: NanoLuc-fused full length BRD4 (UniProt code O60885); expressed in transfected cells; host or cells: HEK293
Procedure: Twenty hours post-transfection 2 × 10^4 cells were trypsinized, washed with PBS, and exchanged into media containing phenol red-free DMEM, 10% FBS in the absence (control sample), or the presence (experimental sample) of 100 nM NanoBRET 618 fluorescent ligand (Promega). Cell density was adjusted to 2 × 10^5 cells/mL and then replated in a 96-well assay white plate (Corning Costar no. 3917). At the time of replating compound 7d or 11 were added at a final concentration spanning from 0.005 to 33 μM and the plates were incubated for 18 h at 37 °C in the presence of 5% CO2. NanoBRET substrate (Promega) was added to both control and experimental samples at a final concentration of 10 μM. Readings were performed within 5 min using the CLARIOstar reader (BMG Lifetechnologies) equipped with 450/80 nm bandpass and 610 nm long-pass filters. A corrected BRET ratio was calculated and is defined as the ratio of the emission at 610 nm/450 nm for experimental samples (i.e., those treated with NanoBRET fluorescent ligand) subtracted by and the emission at 610 nm/450 nm for control samples (not treated with NanoBRET fluorescent). BRET ratios are expressed as milliBRET units (mBU), where 1 mBU corresponds to the corrected BRET ratio multiplied by 1000.

[1] = 50 mM HEPES pH 7.5, 150 mM NaCl, 15 °C, reverse titration, triplicate, read-out: KD
[2] = read-out: dissociation constant

T2 sequence (Q15059 34-140 limits assumed): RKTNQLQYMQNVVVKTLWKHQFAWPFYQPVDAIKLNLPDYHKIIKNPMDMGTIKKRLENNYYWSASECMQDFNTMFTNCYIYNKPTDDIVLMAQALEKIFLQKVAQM

## COc1ccc(Br)cc1-c1nc(N)nc2[nH]cnc12 [Compound 7d, 2-Amino-6-(5-bromo-2-methoxyphenyl)-9H-purine]
BRD4(1); [1]
  Kd: 4.65 ± 0.197 µM
BRD4(1); 15 °C
  TΔS: 0.94 kcal/mol
  ΔG: –7.03 kcal/mol
BRD4(1); 15 °C, reverse titration
  N (stoichiometry): 0.99 ± 0.018
  ΔHobs: –6.09 ± 0.14 kcal/mol
BRD4(1); [2]
  Kd: 4.7 µM and 4.65 µM
BRD4(1)
  LE (ligand efficiency): 0.37
BRD3(1)
  ΔTm at 10 µM: 2.1 °C
Full length BRD4
  displacement of full-length BRD4 from histone H3.3 (in words): fail to elicit the same effect; also recorded: not completely displaced; also recorded: failing to displace

## Nc1nc(-c2cc(Br)cc3c2OCC3)c2nc[nH]c2n1 [Compound 11, 2-Amino-6-(5-bromo-2,3-dihydrobenzo[b]furan-7-yl)-9H-purine]
BRD4(1); [1]
  Kd: 1.37 ± 0.029 µM
BRD4(1); 15 °C
  TΔS: 1.34 kcal/mol
  ΔG: –7.73 kcal/mol
BRD4(1); 15 °C, reverse titration
  N (stoichiometry): 1.09 ± 0.002
  ΔHobs: –6.39 ± 0.02 kcal/mol
BRD4(1); [2]
  Kd: 1.4 µM and 1.37 µM
BRD4(1)
  LE (ligand efficiency): 0.39
BRD3(1)
  ΔTm at 10 µM: 3.7 °C
Full length BRD4
  displacement of full-length BRD4 from histone H3.3 (in words): fail to elicit the same effect; also recorded: not completely displaced; also recorded: failing to displace
